Test results: US20260297085A1, “1 H-PYRROLO[2,3-B]PYRIDIN-4-YL]-2-OXOPYRROLIDINE-3-CARBONITRILE DERIVATIVES AS TYROSINE KINASE 2 (TYK2) INHIBITORS FOR THE TREATMENT OF INFLAMMATORY DISEASES” (BIOGEN MA INC., priority 2023, published 2026)
Structures can show the parent of a compound that is named as a salt.

How the values were obtained:
[1] = biological target: T1, human JAK1 kinase domain (JH1) (Homo sapiens, UniProt P23458); assay: JH1 biochemical assay for JAK1 (ADP-Glo kinase assay, recombinant JH1 catalytic domain, JAK3-342 peptide, 35 μM ATP)
T1 construct: recombinantly generated catalytic kinase (also known as JH1) domain of human JAK1, JAK2, JAK3 and TYK2
Outline: (§1)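 Reactions contain 50 μM peptide and run 100 minutes, with enzyme at 4, 0.2, 0.3 and 2 nM for JAK1, JAK2, JAK3 and TYK2. Generated ADP is read by luminescence; IC50 derives from normalized dose-response curves.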

[2] = biological target: T2, human JAK2 kinase domain (JH1) (Homo sapiens, UniProt O60674); assay: JH1 biochemical assay for JAK2 (ADP-Glo kinase assay, recombinant JH1 catalytic domain, JAK3-974 peptide, 15 μM ATP)
T2 construct: recombinantly generated catalytic kinase (also known as JH1) domain of human JAK1, JAK2, JAK3 and TYK2
Outline: as §1

[3] = biological target: JAK1 kinase activity on STAT3 in TF1 cells (Homo sapiens, UniProt P23458); assay: pSTAT3 cell assay (MSD; TF1 cells, 30 ng/mL IL-6 stimulation); format: cell-based; conditions: 30 ng/mL IL-6, 15 minutes
Outline: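 Readout is pSTAT3 in lysates, quantified on an MSD plate assay using anti-STAT3 antibodies. Before lysis, TF1 cells had been serum-starved, exposed to compound for 1 hour across ten four-fold dilutions starting at 10 μM, and given IL-6 for 15 minutes.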

[4] = biological target: T3, human JAK3 kinase domain (JH1) (Homo sapiens, UniProt P52333); assay: JH1 biochemical assay for JAK3 (ADP-Glo kinase assay, recombinant JH1 catalytic domain, JAK3-974 peptide, 4 μM ATP)
T3 construct: recombinantly generated catalytic kinase (also known as JH1) domain of human JAK1, JAK2, JAK3 and TYK2
Outline: as §1

[5] = biological target: Tyk2 kinase activity on STAT4 in NK92 cells (Homo sapiens, UniProt P29597); assay: pSTAT4 cell assay (MSD; NK92 cells, 30 ng/mL IL2 stimulation); format: cell-based; conditions: 30 ng/mL IL2, 15 minutes
Outline: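 NK92, serum-starved; cpd 1 hr, 10-pt 4-fold from 10 μM; IL2 30 ng/mL 15 min; lyse; MSD with anti-STAT4 Abs; IC50 by 4-PL fit.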

[6] = biological target: JAK2 kinase activity on STAT5 in TF1 cells (Homo sapiens, UniProt O60674); assay: pSTAT5 cell assay (MSD; TF1 cells, 30 ng/mL IL-3 stimulation); format: cell-based; conditions: 30 ng/mL IL-3, 15 minutes
Outline: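 Serum-starved TF1 cells with native JAK2/STAT5 were pretreated 1 h with compound (10-point four-fold dilutions from 10 μM), then stimulated 15 min with 30 ng/mL IL-3. pSTAT5 in lysates quantified by MSD immunoassay; normalized percent activity fitted to a 4-parameter logistic curve for IC50.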

[7] = biological target: T4, human TYK2 kinase domain (JH1) (Homo sapiens, UniProt P29597); assay: JH1 biochemical assay for TYK2 (ADP-Glo kinase assay, recombinant JH1 catalytic domain, JAK3-974 peptide, 10 μM ATP)
T4 construct: recombinantly generated catalytic kinase (also known as JH1) domain of human JAK1, JAK2, JAK3 and TYK2
T4 sequence (P29597 897-1176 limits assumed): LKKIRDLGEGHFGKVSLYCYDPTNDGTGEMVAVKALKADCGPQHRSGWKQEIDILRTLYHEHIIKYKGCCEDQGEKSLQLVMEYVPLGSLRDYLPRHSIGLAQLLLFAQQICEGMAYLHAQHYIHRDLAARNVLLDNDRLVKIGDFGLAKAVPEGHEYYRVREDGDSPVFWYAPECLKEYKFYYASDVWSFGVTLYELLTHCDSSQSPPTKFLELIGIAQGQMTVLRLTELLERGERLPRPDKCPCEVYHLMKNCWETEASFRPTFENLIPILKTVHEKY
Outline: as §1

T3 sequence (P52333 822-1111 limits assumed): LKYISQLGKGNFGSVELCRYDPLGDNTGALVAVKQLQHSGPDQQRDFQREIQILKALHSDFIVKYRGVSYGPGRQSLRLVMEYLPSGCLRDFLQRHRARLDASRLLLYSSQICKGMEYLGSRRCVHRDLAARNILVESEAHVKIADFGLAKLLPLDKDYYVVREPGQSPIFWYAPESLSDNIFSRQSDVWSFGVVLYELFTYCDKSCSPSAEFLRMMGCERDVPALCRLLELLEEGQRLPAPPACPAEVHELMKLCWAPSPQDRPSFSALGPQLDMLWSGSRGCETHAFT
Sequence of JAK1 kinase activity on STAT3 in TF1 cells (P23458 whole entry): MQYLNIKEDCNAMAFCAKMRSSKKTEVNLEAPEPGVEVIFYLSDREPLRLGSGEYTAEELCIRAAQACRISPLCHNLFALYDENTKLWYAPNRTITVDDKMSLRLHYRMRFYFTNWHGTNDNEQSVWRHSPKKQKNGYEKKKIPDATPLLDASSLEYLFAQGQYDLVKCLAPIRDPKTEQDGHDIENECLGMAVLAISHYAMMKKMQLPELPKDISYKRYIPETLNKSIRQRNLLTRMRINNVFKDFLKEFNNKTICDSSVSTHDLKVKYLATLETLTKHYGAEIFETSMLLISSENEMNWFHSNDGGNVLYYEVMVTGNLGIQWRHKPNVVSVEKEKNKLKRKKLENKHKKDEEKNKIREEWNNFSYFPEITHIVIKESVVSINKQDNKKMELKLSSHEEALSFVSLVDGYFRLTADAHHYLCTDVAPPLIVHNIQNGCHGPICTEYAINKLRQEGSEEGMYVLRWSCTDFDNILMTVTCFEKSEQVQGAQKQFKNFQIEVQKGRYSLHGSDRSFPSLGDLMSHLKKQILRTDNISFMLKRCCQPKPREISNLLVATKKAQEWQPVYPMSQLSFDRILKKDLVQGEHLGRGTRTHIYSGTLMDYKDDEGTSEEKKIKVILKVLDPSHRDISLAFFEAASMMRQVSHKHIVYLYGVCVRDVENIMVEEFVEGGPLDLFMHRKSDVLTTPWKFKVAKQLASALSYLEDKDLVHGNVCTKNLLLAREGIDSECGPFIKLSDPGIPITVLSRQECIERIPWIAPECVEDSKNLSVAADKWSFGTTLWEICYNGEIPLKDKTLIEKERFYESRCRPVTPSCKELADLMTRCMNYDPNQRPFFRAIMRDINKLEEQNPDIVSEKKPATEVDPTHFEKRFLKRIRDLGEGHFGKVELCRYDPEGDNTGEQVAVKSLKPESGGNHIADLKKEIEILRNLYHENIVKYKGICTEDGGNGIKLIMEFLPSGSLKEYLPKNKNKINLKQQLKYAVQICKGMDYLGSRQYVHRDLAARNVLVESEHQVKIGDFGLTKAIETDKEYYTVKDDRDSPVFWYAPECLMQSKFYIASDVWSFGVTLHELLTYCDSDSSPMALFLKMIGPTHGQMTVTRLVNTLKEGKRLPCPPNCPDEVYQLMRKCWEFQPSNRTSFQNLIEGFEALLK
Sequence of JAK2 kinase activity on STAT5 in TF1 cells (O60674 whole entry): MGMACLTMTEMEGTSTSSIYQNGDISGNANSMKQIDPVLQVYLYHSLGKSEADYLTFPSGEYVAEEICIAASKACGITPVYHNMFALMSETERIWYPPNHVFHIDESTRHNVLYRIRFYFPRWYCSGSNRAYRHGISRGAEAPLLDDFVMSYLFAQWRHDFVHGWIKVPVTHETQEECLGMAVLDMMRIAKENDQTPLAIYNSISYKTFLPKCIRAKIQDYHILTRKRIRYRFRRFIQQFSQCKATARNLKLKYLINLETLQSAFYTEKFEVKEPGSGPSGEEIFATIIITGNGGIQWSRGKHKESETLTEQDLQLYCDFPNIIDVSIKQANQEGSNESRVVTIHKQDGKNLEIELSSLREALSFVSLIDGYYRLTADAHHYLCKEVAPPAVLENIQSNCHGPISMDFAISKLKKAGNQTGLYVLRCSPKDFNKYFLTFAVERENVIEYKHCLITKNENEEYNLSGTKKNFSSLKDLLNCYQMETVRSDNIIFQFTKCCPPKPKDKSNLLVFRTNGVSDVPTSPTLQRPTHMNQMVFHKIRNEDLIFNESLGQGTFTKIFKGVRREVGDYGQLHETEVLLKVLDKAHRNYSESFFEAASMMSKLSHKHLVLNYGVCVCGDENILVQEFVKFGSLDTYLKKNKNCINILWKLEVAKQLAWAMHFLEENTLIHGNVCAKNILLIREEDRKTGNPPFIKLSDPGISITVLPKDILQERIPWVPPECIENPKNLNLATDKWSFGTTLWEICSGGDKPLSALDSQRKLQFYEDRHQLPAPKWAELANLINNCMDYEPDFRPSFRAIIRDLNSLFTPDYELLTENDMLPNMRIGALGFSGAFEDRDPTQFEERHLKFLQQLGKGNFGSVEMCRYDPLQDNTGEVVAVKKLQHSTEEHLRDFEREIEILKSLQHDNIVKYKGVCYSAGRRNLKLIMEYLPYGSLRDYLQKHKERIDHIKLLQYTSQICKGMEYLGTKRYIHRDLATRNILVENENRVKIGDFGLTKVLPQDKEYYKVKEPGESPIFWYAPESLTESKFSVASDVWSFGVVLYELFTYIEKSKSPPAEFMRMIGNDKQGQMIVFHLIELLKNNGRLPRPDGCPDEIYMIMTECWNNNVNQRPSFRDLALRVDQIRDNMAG
T2 sequence (O60674 849-1124 limits assumed): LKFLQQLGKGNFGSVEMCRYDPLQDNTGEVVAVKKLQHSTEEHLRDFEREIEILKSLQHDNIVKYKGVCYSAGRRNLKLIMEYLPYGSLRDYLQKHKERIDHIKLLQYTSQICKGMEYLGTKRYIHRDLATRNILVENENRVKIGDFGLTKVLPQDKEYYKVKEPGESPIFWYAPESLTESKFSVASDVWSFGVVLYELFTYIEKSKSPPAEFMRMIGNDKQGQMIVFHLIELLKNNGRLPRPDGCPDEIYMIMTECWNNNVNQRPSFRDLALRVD
T1 sequence (P23458 875-1153 limits assumed): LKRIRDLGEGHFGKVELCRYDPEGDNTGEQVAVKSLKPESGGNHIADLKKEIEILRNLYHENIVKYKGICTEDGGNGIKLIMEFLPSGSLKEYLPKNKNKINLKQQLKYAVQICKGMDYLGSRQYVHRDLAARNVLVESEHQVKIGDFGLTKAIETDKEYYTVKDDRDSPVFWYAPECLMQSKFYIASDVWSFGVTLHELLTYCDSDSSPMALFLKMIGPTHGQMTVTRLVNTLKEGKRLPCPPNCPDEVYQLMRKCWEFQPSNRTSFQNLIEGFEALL
Sequence of Tyk2 kinase activity on STAT4 in NK92 cells (P29597 whole entry): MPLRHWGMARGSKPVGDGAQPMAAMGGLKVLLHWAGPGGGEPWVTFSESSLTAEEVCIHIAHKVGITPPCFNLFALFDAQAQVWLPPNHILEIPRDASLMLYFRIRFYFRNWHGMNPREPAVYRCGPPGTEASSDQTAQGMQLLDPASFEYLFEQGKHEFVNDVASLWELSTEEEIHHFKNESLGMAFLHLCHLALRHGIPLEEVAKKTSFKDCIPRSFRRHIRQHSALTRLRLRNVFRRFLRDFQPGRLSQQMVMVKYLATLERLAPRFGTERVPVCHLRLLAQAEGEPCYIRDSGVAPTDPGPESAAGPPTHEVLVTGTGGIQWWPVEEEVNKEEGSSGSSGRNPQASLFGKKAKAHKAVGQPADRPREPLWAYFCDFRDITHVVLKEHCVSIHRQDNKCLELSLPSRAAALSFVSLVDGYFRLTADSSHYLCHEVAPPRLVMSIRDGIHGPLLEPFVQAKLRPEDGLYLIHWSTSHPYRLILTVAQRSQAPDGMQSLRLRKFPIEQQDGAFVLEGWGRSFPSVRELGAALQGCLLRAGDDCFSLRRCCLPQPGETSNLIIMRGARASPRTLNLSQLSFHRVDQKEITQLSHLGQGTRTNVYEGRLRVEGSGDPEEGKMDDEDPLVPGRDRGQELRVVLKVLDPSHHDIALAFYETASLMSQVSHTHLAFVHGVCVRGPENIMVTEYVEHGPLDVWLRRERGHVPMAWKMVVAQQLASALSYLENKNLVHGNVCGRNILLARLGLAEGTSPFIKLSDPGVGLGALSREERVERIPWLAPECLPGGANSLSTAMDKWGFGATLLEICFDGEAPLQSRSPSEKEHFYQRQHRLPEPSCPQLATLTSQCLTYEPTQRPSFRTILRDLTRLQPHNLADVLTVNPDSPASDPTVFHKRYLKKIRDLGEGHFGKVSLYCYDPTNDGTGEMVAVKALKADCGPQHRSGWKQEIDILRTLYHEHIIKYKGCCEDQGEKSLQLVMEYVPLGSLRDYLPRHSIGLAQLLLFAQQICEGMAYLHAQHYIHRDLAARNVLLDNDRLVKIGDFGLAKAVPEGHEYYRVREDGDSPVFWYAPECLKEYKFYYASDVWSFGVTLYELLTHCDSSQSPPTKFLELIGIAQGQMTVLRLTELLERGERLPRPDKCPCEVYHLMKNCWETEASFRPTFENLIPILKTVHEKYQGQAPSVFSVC

SMILES | IC50 ([1]; JAK1 JH1, ADP-Glo) [µM] | IC50 ([2]; JAK2 JH1, ADP-Glo) [µM] | IC50 [3] [µM] | IC50 ([4]; JAK3 JH1, ADP-Glo) [µM] | IC50 [5] [µM] | IC50 [6] [µM] | IC50 ([7]; TYK2 JH1, ADP-Glo) [µM] | IC50 ([1]; JH1 kinase domain, ADP-Glo) [µM] | IC50 ([2]; JH1 kinase domain, ADP-Glo) [µM] | IC50 ([4]; JH1 kinase domain, ADP-Glo) [µM] | IC50 ([7]; JH1 kinase domain, ADP-Glo) [µM]
C[C@@H]1CN(c2nc(-c3cnn([C@H]4C[C@](C)(C#N)C4)c3)cn3ncc(F)c23)C(=O)[C@]1(C#N)C1CC1 [Example 308, (3R,4S)-1-(6-(1-((1r,3R)-3-cyano-3-methylcyclobutyl)-1H-pyrazol-4-yl)-3-fluoropyrazolo[1,5-a]pyrazin-4-yl)-3-cyclopropyl-4-methyl-2-oxopyrrolidine-3-carbonitrile] | < 0.1 | < 0.1 | 0.1 to 1 | < 0.1 | 0.05 to 0.1 | 0.1 to 1 | < 0.005 | – | – | – | –
C[C@H]1CN(c2ccnn3cc(-c4cnn(C)c4)cc23)C(=O)[C@]1(C#N)C1CC1 [Example 22, (3R,4R)-3-cyclopropyl-4-methyl-1-(6-(1-methyl-1H-pyrazol-4-yl)pyrrolo[1,2-b]pyridazin-4-yl)-2-oxopyrrolidine-3-carbonitrile] | – | – | > 10 | – | > 0.1 | > 10 | – | 1 to 5 | 1 to 5 | 1 to 5 | 0.05 to 0.1
C[C@@H]1CN(c2ccnn3cc(-c4ccc(C#N)nc4)cc23)C(=O)[C@]1(C#N)C1CC1 [Example 86, 5-(4-((3R,4S)-3-cyano-3-cyclopropyl-4-methyl-2-oxopyrrolidin-1-yl)pyrrolo[1,2-b]pyridazin-6-yl)picolinonitrile trifluoroacetate] | – | – | 5 to 10 | – | > 0.1 | > 10 | – | 0.1 to 1 | 1 to 5 | 0.1 to 1 | 0.005 to 0.02
C[C@@H]1CN(c2nc(-c3cccnc3)cn3nccc23)C(=O)[C@]1(C#N)C1CC1 [Example 194, (3R,4S)-3-cyclopropyl-4-methyl-2-oxo-1-(6-(pyridin-3-yl)pyrazolo[1,5-a]pyrazin-4-yl)pyrrolidine-3-carbonitrile] | – | – | 1 to 5 | – | > 0.1 | 1 to 5 | – | < 0.1 | 0.1 to 1 | < 0.1 | < 0.005
C[C@@H]1CN(c2ccnn3cc(-c4cnn(CC5(C#N)CC5)c4)cc23)C(=O)[C@]1(C#N)C1CC1 [Example 324, (3R,4S)-1-(6-(1-((1-cyanocyclopropyl)methyl)-1H-pyrazol-4-yl)pyrrolo[1,2-b]pyridazin-4-yl)-3-cyclopropyl-4-methyl-2-oxopyrrolidine-3-carbonitrile] | < 0.1 | < 0.1 | 0.1 to 1 | < 0.1 | 0.05 to 0.1 | 0.1 to 1 | < 0.005 | – | – | – | –
C[C@@H]1CN(c2ccnn3cc(-c4cnn(S(C)(=O)=O)c4)cc23)C(=O)[C@]1(C#N)C1CC1 [Example 163, (3R,4S)-3-cyclopropyl-4-methyl-1-(6-(1-(methylsulfonyl)-1H-pyrazol-4-yl)pyrrolo[1,2-b]pyridazin-4-yl)-2-oxopyrrolidine-3-carbonitrile] | – | – | 1 to 5 | – | > 0.1 | 5 to 10 | – | 0.1 to 1 | 0.1 to 1 | 0.1 to 1 | < 0.005
COc1cncc(-c2cn3nccc3c(N3C[C@@H](C)[C@@](C#N)(C4CC4)C3=O)n2)c1 [Example 244, (3R,4S)-3-cyclopropyl-1-(6-(5-methoxypyridin-3-yl)pyrazolo[1,5-a]pyrazin-4-yl)-4-methyl-2-oxopyrrolidine-3-carbonitrile trifluoroacetate] | 0.1 to 1 | 0.1 to 1 | 5 to 10 | 0.1 to 1 | > 0.1 | > 10 | 0.005 to 0.02 | – | – | – | –
Cc1nc(C)c(-c2cn3nccc3c(N3C[C@@H](C)[C@@](C#N)(C4CC4)C3=O)n2)s1 [Example 209, (3R,4S)-3-cyclopropyl-1-(6-(2,4-dimethylthiazol-5-yl)pyrazolo[1,5-a]pyrazin-4-yl)-4-methyl-2-oxopyrrolidine-3-carbonitrile] | – | – | 1 to 5 | – | > 0.1 | 5 to 10 | – | < 0.1 | 0.1 to 1 | < 0.1 | 0.005 to 0.02
C[C@@H]1CN(c2nc(-c3cnn(CC#N)c3)cn3ncc(F)c23)C(=O)[C@]1(C#N)C1CC1 [Example 220, (3R,4S)-1-(6-(1-(cyanomethyl)-1H-pyrazol-4-yl)-3-fluoropyrazolo[1,5-a]pyrazin-4-yl)-3-cyclopropyl-4-methyl-2-oxopyrrolidine-3-carbonitrile] | 0.1 to 1 | 0.1 to 1 | 1 to 5 | < 0.1 | > 0.1 | 1 to 5 | < 0.005 | – | – | – | –
C[C@@H]1CN(c2ccnn3cc(-c4cnn(C5CC6(COC6)C5)c4)cc23)C(=O)[C@]1(C#N)C1CC1 [Example 319, (3R,4S)-1-(6-(1-(2-oxaspiro[3.3]heptan-6-yl)-1H-pyrazol-4-yl)pyrrolo[1,2-b]pyridazin-4-yl)-3-cyclopropyl-4-methyl-2-oxopyrrolidine-3-carbonitrile] | < 0.1 | < 0.1 | 0.1 to 1 | < 0.1 | 0.02 to 0.05 | 0.1 to 1 | < 0.005 | – | – | – | –
C[C@@H]1CN(c2ccnn3cc(-c4cnn(C5CC5(F)F)c4)cc23)C(=O)[C@]1(C#N)C1CC1 (mixture of isomers) [Example 154, (3R,4S)-3-cyclopropyl-1-(6-(1-(2,2-difluorocyclopropyl)-1H-pyrazol-4-yl)pyrrolo[1,2-b]pyridazin-4-yl)-4-methyl-2-oxopyrrolidine-3-carbonitrile] | – | – | 1 to 5 | – | 0.005 to 0.02 | 1 to 5 | – | < 0.1 | 0.1 to 1 | 0.1 to 1 | < 0.005
Cc1c(-c2cn3ncc(F)c3c(N3C[C@@H](C)[C@@](C#N)(C4CC4)C3=O)n2)cnn1C [Example 221, (3R,4S)-3-cyclopropyl-1-(6-(1,5-dimethyl-1H-pyrazol-4-yl)-3-fluoropyrazolo[1,5-a]pyrazin-4-yl)-4-methyl-2-oxopyrrolidine-3-carbonitrile] | 0.1 to 1 | 1 to 5 | 1 to 5 | 0.1 to 1 | > 0.1 | > 10 | 0.005 to 0.02 | – | – | – | –
CC(=O)Nc1cc(-c2cn3nccc3c(N3C[C@@H](C)[C@@](C#N)(C4CC4)C3=O)n2)ccn1 [Example 228, N-(4-(4-((3R,4S)-3-cyano-3-cyclopropyl-4-methyl-2-oxopyrrolidin-1-yl)pyrazolo[1,5-a]pyrazin-6-yl)pyridin-2-yl)acetamide] | < 0.1 | 0.1 to 1 | 0.1 to 1 | < 0.1 | 0.05 to 0.1 | 1 to 5 | < 0.005 | – | – | – | –
C[C@@H]1CN(c2nc(-c3cnn(C4CC4(F)F)c3)cn3nccc23)C(=O)[C@]1(C#N)C1CC1 (stereo partly drawn) [Example 198, (3R,4S)-3-cyclopropyl-1-(6-(1-(2,2-difluorocyclopropyl)-1H-pyrazol-4-yl)pyrazolo[1,5-a]pyrazin-4-yl)-4-methyl-2-oxopyrrolidine-3-carbonitrile] | – | – | 0.1 to 1 | – | 0.05 to 0.1 | 0.1 to 1 | – | < 0.1 | < 0.1 | < 0.1 | < 0.005
COc1ccc(-c2cc3c(N4C[C@@H](C)[C@@](C#N)(C5CC5)C4=O)ccnn3c2)cn1 [Example 48, (3R,4S)-3-cyclopropyl-1-(6-(6-methoxypyridin-3-yl)pyrrolo[1,2-b]pyridazin-4-yl)-4-methyl-2-oxopyrrolidine-3-carbonitrile] | – | – | 1 to 5 | – | > 0.1 | 5 to 10 | – | 0.1 to 1 | 0.1 to 1 | 0.1 to 1 | 0.005 to 0.02
